Consider 23 compounds from ChEMBL document CHEMBL4130497, “Fragment-based approach to identify IDO1 inhibitor building blocks” (Eur J Med Chem, 2017).

The target in data set [1] is Indoleamine 2,3-dioxygenase 1 (Homo sapiens, UniProt P14902). The data set can be described thus: Binding affinity to NT647 dye labeled recombinant human IDO1 (1 to 403 residues) by microscale thermophoresis method.
For data set [2], the target named is Indoleamine 2,3-dioxygenase 1 (Mus musculus) (UniProt P28776). The data set can be described thus: Inhibition of mouse IDO1 expressed in mouse P1.HTR cells assessed as reduction in kynurenine production from L-Trp incubated for 16 hrs by HPLC method. The class given is cell-based.
A short description of data set [3]: Dissociation constant, pKa of the compound. The class given is physicochemical.
A short description of data set [4]: Lipophilicity, log P of the compound in n1-octanol and water by pH-metric assay. The class given is physicochemical. As to conditions: n-octanol/water.

Indoleamine 2,3-dioxygenase 1, sequence (P14902 whole entry, the tested form may be a part): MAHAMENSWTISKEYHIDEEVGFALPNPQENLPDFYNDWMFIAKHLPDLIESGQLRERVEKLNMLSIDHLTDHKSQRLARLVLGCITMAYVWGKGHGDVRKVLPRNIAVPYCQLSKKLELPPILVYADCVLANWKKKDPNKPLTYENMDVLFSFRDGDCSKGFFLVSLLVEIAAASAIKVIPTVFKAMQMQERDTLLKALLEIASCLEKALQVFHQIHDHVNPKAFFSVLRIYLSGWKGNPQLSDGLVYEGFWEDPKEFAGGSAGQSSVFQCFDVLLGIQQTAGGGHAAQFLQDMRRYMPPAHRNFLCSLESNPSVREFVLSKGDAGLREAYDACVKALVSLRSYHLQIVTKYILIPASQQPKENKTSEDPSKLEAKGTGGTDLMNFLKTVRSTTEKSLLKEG
Indoleamine 2,3-dioxygenase 1 (Mus musculus), sequence (P28776 whole entry, looked up): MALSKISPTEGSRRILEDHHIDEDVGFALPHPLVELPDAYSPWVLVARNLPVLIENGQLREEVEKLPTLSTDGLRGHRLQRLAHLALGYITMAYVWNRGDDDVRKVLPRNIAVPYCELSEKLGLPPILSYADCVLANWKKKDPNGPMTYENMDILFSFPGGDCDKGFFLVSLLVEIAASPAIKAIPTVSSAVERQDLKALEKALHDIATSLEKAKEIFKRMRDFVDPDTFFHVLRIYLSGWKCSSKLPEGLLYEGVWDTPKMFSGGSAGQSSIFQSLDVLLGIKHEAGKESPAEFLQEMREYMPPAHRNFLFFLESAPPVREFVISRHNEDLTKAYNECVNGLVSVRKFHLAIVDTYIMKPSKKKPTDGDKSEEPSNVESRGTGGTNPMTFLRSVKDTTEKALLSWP

As to `COc1ccc(-c2cnc(CN)[nH]2)cc1`, in data set [1], the Kd is > 500 µM.

With `Cc1ccc(NCCNC(=O)c2c[nH]c3ccccc23)nn1`, the Kd in data set [1] is > 1000 µM.

As for `N=C(N)Sc1c[nH]c2ccccc12`, the fold change (FC) in data set [2] is < 0.6. The pKa in data set [3] turned out to be 9.5. Further, the logP in data set [4] is 1.8. In data set [1], the Kd was 17.8 µM.

As to `OC(c1nc2ccccc2[nH]1)C(O)c1nc2ccccc2[nH]1` (stereo not given), the equilibrium dissociation constant (Kd) in data set [1] was found to be 774 µM.

`CCc1cccc2sc(NCCN3CCOCC3)nc12` came in with a pKa in data set [3] of 3.1 to 6.2. The compound also yielded a logP in data set [4] of 2.3. Further, in data set [1], the Kd is 33.5 µM.

For the compound `COc1ccccc1OCC(O)Cn1cnc2ccccc21` (stereo not given), the Kd in data set [1] was found to be 86.8 µM.

`NC(S)=NNC(=O)Nc1ccc(Cl)c(Cl)c1`: the Kd in data set [1] was found to be 941 µM.

As to `Cn1cc(C(O)CN)c2ccccc21` (stereo not given), the Kd in data set [1] came out at 97 µM.

For the compound `O=C1CC(NC(=O)Cn2ccc3ccccc32)CN1` (stereo not given), in data set [1], the Kd was determined as 237 µM.

As to `NCC(O)c1cccc2ccccc12` (stereo not given), the Kd in data set [1] is > 1000 µM.

For the compound `O=C(NCCn1ncccc1=O)c1ccc2ccccc2c1`, the Kd in data set [1] was 240 µM.

The compound `OC(CC1c2ccccc2-c2cncn21)C1CCCCC1` (stereo not given) showed a pKa in data set [3] of 6.7.

As for `Cc1c(C)n(CC(O)CN2CCNCC2)c2ccccc12` (stereo not given), in data set [1], the Kd came out at 96.7 µM.

As for `NCCc1nc2ccc(F)cc2[nH]1`, the Kd in data set [1] was 548 µM.

Turning to `NCC(O)c1cc(Cl)cc(Cl)c1` (stereo not given), the Kd in data set [1] was > 1000 µM.

`O=S(=O)(NCc1cccnc1)c1ccc2ccccc2c1` returned a pKa in data set [3] of 4.8 to 10.3. In data set [4], the logP stood at 2.5. The Kd in data set [1] amounted to 53.7 µM.

Regarding `Cc1ccc(NCCNC(=O)c2cccc(Cl)c2)nn1`, the Kd in data set [1] was > 1000 µM.

As for `NCC(O)COCC1COc2ccccc2O1` (stereo not given), in data set [1], the Kd is > 1000 µM.

As to `COc1ccccc1OCC(O)CNC1CCCC1` (stereo not given), the Kd in data set [1] is > 1000 µM.

As to `O=C(/C=C/N1CCOCC1)c1coc2ccccc12`, the Kd in data set [1] came to 147 µM.

Regarding `NC(=O)c1csc(NC(=O)Cc2c[nH]c3ccccc23)c1`, the Kd in data set [1] was 61.5 µM.

Take `NC(=O)CN1CCN(c2cccc3ccccc23)C(=O)C1=O`: in data set [1], the Kd is > 1000 µM.

Regarding `COC(=O)C(N)c1ccc2ccccc2c1` (stereo not given), in data set [1], the Kd stood at 169 µM.
